# Measurements: patent US7998972B2, “1H-imidazo[4,5-c]quinoline derivatives in the treatment of protein kinase dependent diseases” (Novartis AG, priority 2002, dated 2011)
# Tests used:
# Abl = target: T1, Abl (Homo sapiens, UniProt P00519); assay: Inhibition of c-Abl protein-tyrosine kinase (filter binding assay); assay type: biochemical; conditions: His-tagged c-Abl kinase domain, Poly-AEKY, 5 μM ATP; read-out: IC50 range class, inhibition of Abl in vitro
# T1 construct: The His-tagged kinase domain of c-Abl is cloned and expressed in the baculovirus/Sf9 system; His; made in house; host or cells: baculovirus / Sf9 cells
# T1 sequence (P00519 242-493 limits assumed): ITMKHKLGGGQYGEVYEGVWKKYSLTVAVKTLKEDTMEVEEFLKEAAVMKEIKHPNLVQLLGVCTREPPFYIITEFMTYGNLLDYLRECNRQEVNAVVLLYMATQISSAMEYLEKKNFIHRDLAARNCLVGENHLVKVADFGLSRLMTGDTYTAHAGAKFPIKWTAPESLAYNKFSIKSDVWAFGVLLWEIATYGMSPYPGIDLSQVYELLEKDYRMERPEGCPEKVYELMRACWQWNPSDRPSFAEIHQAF
# Description: An in vitro enzyme assay is performed in 96-well plates as a filter binding assay as described by Geissler et al. in Cancer Res. 1992; 52:4492-4498, with the following modifications. The His-tagged kinase domain of c-Abl is cloned and expressed in the baculovirus/Sf9 system as described by Bhat et al. in J. Biol. Chem. 1997; 272:16170-16175. A protein of 37 kD (c-Abl kinase) is purified by a two-step procedure over a Cobalt metal chelate column followed by an anion exchange column with a yield of 1-2 mg/L of Sf9 cells (Bhat et al., reference cited). The purity of the c-Abl kinase is >90% as judged by SDS-PAGE after Coomassie blue staining. The assay contains (total volume of 30 μL): c-Abl kinase (50 ng), 20 mM Tris.HCl, pH 7.5, 10 mM MgCl2, 10 μM Na3VO4, 1 mM DTT and 0.06 μCi/assay [γ^33 P]-ATP (5 μM ATP) using 30 μg/mL poly-Ala,Glu,Lys,Tyr-6:2:5:1 (Poly-AEKY, Sigma P1152) in the presence of 1% DMSO. Reactions are terminated by adding 10 μL of 250 mM EDTA and 30 μL of the reaction mixture is transferred on to Immobilon-PVDF membrane (Millipore, Bedford, Mass., USA) previously soaked for 5 min with methanol, rinsed with water, then soaked for 5 min with 0.5% H3PO4 and mounted on vacuum manifold with disconnected vacuum source. After spotting all samples, vacuum is connected and each well rinsed with 200 μL 0.5% H3PO4. Membranes are removed and washed on a shaker with 0.5% H3PO4 (4 times) and once with ethanol. Membranes are counted after drying at ambient temperature, mounting in Packard TopCount 96-well frame, and addition of 10 μL/well of Microscint™ (Packard).
# Kdr = target: T2, Kdr (Homo sapiens, UniProt P35968); assay: Inhibition of KDR protein tyrosine kinase in vitro; assay type: biochemical; conditions: GST-fused KDR kinase domain, polyGluTyr(4:1), 8 μM ATP; read-out: IC50 range class, inhibition of Kdr in vitro
# T2 construct: The kinase domain of KDR is expressed as GST-fusion protein using the baculovirus system; made in house
# T2 sequence (P35968 834-1162 limits assumed): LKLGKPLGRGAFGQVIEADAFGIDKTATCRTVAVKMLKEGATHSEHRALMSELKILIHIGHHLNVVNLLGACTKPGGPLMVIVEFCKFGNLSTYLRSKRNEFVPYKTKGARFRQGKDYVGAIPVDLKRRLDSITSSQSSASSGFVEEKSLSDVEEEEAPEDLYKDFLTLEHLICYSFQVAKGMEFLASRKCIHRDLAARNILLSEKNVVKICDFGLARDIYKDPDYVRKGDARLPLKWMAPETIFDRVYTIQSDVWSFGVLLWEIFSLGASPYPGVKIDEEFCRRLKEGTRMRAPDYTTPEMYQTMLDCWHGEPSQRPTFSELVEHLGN
# Description: Inhibition of the enzyme activity of KDR protein tyrosine kinase can be determined as follows: The kinase domain of KDR is expressed as GST-fusion protein using the baculovirus system. The in vitro kinase assay is performed in 96-well plates using the recombinant GST-fused kinase domains expressed in baculovirus and purified over glutathione-Sepharose. ^33P-ATP (Amersham) is used as the phosphate donor, and the polyGluTyr(4:1) peptide (Sigma) is used as acceptor. The buffer is composed as follows: 29 mM Tris-HCl, pH 7.5; 10 mM MgCl2, 1 μM MnCl2, 8 μM ATP, 0.2 μCi ^33P-ATP, 8 μg/ml polyGluTyr. The reaction os carried out in a volume of 30 μl for 10 min at room temperature in the presence of either 1% DMSO or the test compound of formula I at the required concentration in 1% DMSO […]. The reaction is stopped by the addition of ethylenediaminetetraacetic acid to a final concentration of 60 mM. The assay mixture is then transferred onto a Immobilon-PVF membrane (Millipore), which is subsequently washed four times with 0.05% H3PO4 and once with ethanol. After drying, […] of Microscint Cocktail (Packard) is added and scintillation counting is performed (Hewlett-Packard Top Count). IC50 values are calculated by linear regression analysis of the percentage inhibition of each test compound in duplicate, at three concentrations (usually 0.01, 0.1 and 1 μM or 0.1, 1 and 10 μM).
# c-Met = target: T3, c-Met (Homo sapiens, UniProt P08581); assay: Inhibition of c-Met kinase (33P-ATP filter assay); assay type: biochemical; conditions: GST-c-Met cytoplasmic domain, poly(EY) substrate; read-out: IC50 range class, inhibition of c-Met
# T3 construct: c-Met cytoplasmic domain (amino acids 969 to C-terminus); made in house; host or cells: baculovirus / Sf9 cells
# T3 sequence (P08581 969-1390 limits assumed): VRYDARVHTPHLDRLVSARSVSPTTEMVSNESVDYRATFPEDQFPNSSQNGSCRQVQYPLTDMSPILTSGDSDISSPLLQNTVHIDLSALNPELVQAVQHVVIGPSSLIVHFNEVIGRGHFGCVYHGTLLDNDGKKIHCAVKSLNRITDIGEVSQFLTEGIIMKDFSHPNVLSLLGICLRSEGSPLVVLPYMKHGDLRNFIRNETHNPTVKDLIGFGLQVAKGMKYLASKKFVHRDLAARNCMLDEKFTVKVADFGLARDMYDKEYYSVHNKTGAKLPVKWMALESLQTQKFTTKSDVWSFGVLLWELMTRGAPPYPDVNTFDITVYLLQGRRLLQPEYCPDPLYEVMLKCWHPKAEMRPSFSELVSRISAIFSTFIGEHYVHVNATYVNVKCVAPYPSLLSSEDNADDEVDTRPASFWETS
# Description: Compounds of the formula I, for example, are able to inhibit c-Met kinase as mentioned already in the introduction. Using the sequence disclosed by Chan et al. (see Chan, A M-L, King H W S, Tempest P R, Deakin E A, Cooper C S, Brookes P. Primary structure of the met protein tyrosine kinase domain. Oncogene 1987; 12:229-233), a construct with this sequence, after hooking to a GST tag, was cloned into baculovirus and expressed in Sf9 cells. After partial purification by affinity chromatography on GST agarose resulting in a >90% pure preparation (SDS-PAGE), the kinase activity of this construct is used for inhibition assays using the compounds of formula I. The quality of the purified kinase preparations is highly reproducible: 9 batches of c-Met gives an average specific activity of 32.3±5.7 nmol/mg·min.
# For inhibition studies, the following experimental protocol is used:
# In vitro protein kinase assays are performed in 96-well plates. The amount of enzyme used in kinase assays and the incubation time for the kinase reaction are adjusted so that maximally 25% (in routine experiments <10%) of the substrate ATP are consumed.
# Test compounds of the formula I are first dissolved in DMSO at a concentration of 1-10 mM (stock solution) and then further diluted with water/3% DMSO as required so that the final DMSO concentration in the assay is 1%.
# The assay components are mixed in the following order: • 10 μl 3×compound (in 3% DMSO) • 10 μl 3×assay mix (MgCl2/MnCl2/ATP/^33P-ATP/poly(EY)) • 10 μl 3×enzyme dilution
# Assays are incubated for 15 min (in special cases up to 60 min) at ambient temperature, reactions terminated by addition of 10 μl 0.25 M EDTA pH 7, then 20 μl transferred to a Millipore Immobilon^P membrane (previously soaked for 5 min with methanol, rinsed with water, then soaked for 5 min with 0.5% H3PO4 and mounted on vacuum manifold) with disconnected vacuum source. After spotting all samples, vacuum is connected and each well rinsed with 200 μl 0.5% H3PO4. Membranes are removed and washed 4× on shaker with 0.5% H3PO4, once with methanol. Membranes are counted after drying at ambient temperature, mounting in Packard TopCount 96-well frame, and addition of 10 μl/well of the scintillator Microscint™ (Packard).
# IC50 values are calculated by logarithmic regression analysis of the percentage inhibition of each compound at 4 concentrations (usually 3- or 10-fold dilution series starting at 10 μM). In each experiment, the actual inhibition by reference compound is used for normalization of IC50 values to the basis of an average value of the reference inhibitor: Normalized IC50=measured IC50·average ref. IC50/measured ref. IC50 Example: • Reference inhibitor in experiment 0.4 μM, average 0.3 μM • Test compound in experiment 1.0 μM, normalization: 1.0·0.3/0.4=0.75 μM
# For example, staurosporine or a synthetic staurosporine derivative are used as reference compounds.
# CDK1 = assay: Inhibition of CDK1 (p34cdc2/cyclin Bcdc13 kinase, histone H1 substrate); assay type: biochemical, starfish; conditions: read-out: IC50 range class, inhibition of CDK1 in vitro
# Description: Starfish oocytes are induced into the M phase with 10 μM 1-methyl-adenine, frozen in liquid nitrogen and stored at −80° C. The ooctyes are homogenized and centrifuged, as described in D. Arlon et al., Cell 55, 371-378 (1988) and V. Rialet und L. Meijer, Anticancer Res. 11, 1581-1590 (1991), as required. For purification of the p34^cdc2/cyclin B^cdc13 kinase, the supernatant of the oocytes is introduced onto p9^CKShs Sepharose grains produced from recombinant human protein p9^CKShs, as described in L. Azzi et al., Eur. J. Biochem. 203, 353-360 (1992). After 30 minutes at 4° C. under constant rotation, the grains are washed thoroughly and the active p34^cdc2/cyclin B^cdc13 kinase is eluted with free protein p9^CKShs (3 mg/ml). The kinase eluted is tested as described in L. Meijer et al., EMBO J. 8, 2275-2282 (1989) and EMBO J. 10, 1545-1554 (1991), using histone H1 as the substrate. In this test, the compounds of the formula I and their pharmaceutically acceptable salts have an inhibiting concentration IC50 [μmol/l] of 0.01 to 10, usually of 0.05 to 1.
SMILES,IC50 (Abl) [nM],IC50 (Kdr) [nM],IC50 (c-Met) [nM],IC50 (CDK1) [nM]
"COc1cccc(-c2ccc3ncc4ncn(-c5ccccc5Cl)c4c3c2)c1 [Example 140, 1-(2-Chloro-phenyl)-8-(3-methoxy-phenyl)-1H-imidazo[4,5-c]quinoline]",≤ 500,≤ 500,–,–
"CCn1c(=O)n(-c2ccccc2Cl)c2c3cc(Br)ccc3ncc21 [Example 113, 8-Bromo-1-(2-chloro-phenyl)-3-ethyl-1,3-dihydro-imidazo[4,5-c]quinolin-2-one]",–,1000 to 2000,≤ 500,1000 to 2000
"CCn1c(=O)n(-c2ccccc2Cl)c2c3cc(Cl)ccc3ncc21 [Example 108, 8-Chloro-1-(2-chloro-phenyl)-3-ethyl-1,3-dihydro-imidazo[4,5-c]quinolin-2-one]",–,≤ 500,500 to 1000,≤ 500
"OCc1cccc(-n2cnc3cnc4ccc(-c5ccccc5)cc4c32)c1 [Example 62, [3-(8-Phenyl-imidazo[4,5-c]quinolin-1-yl)-phenyl]-methanol]",≤ 500,≤ 500,–,–
"CCc1ccc2ncc3ncn(-c4ccccc4F)c3c2c1 [Example 50, 8-Ethyl-1-(2-fluoro-phenyl)-1H-imidazo[4,5-c]quinoline]",–,–,≤ 500,≤ 500
"Cn1c(=O)n(-c2ccccc2Cl)c2c3cc(Br)ccc3ncc21 [Example 104, 8-Bromo-1-(2-chloro-phenyl)-3-methyl-1,3-dihydro-imidazo[4,5-c]quinolin-2-one]",–,–,≤ 500,1000 to 2000
"COc1ccc2ncc3ncn(-c4ccccc4)c3c2c1 [Example 48, 8-Methoxy-1-phenyl-1H-imidazo[4,5-]quinoline]",–,1000 to 2000,–,–
"O=c1n(CC2CC2)c2cnc3ccc(Cl)cc3c2n1-c1ccccc1Cl [Example 128, 8-Chloro-1-(2-chloro-phenyl)-3-(cyclopropyl-methyl)-1,3-dihydro-imidazo[4,5-c]quinolin-2-one]",–,–,–,500 to 1000
"Nc1cccc(-n2cnc3cnc4ccc(-c5ccccc5)cc4c32)c1 [Example 58, 3-(8-Phenyl-imidazo[4,5-c]quinolin-1-yl)-phenylamine]",≤ 500,≤ 500,–,–
"CC(C)n1c(=O)n(-c2ccccc2Cl)c2c3cc(Br)ccc3ncc21 [Example 114, 8-Bromo-1-(2-chloro-phenyl)-3-isopropyl-1,3-dihydro-imidazo[4,5-c]quinolin-2-one]",–,≤ 500,500 to 1000,≤ 500
"O=c1[nH]c2cnc3ccc(Br)cc3c2n1-c1ccccc1Cl [Example 93, 8-Bromo-1-(2-chloro-phenyl)-1,3-dihydro-imidazo[4,5-c]quinolin-2-one]",–,500 to 1000,≤ 500,–
"COc1ccccc1-c1ccc2ncc3ncn(-c4ccccc4Cl)c3c2c1 [Example 142, 1-(2-Chloro-phenyl)-8-(2-methoxy-phenyl)-1H-imidazo[4,5-c]quinoline]",≤ 500,–,–,–
